# Reference: ChEMBL document CHEMBL4342418, “1,2,3-Triazole-containing hybrids as potential anticancer agents: Current developments, action mechanisms and structure-activity relationships” (Eur J Med Chem, 2019)
# Experiments:
# MDA-MB-231 [1] = test: Antiproliferative activity against human MDA-MB-231 cells assessed as reduction in cell viability after 72 hrs by MTT assay; type: functional, cell-based; details: MDA-MB-231, 72 h, read-out: IC50
# U-87 MG = test: Antiproliferative activity against human U87 cells assessed as reduction in cell viability after 72 hrs by MTT assay; type: functional, cell-based, U-87MG ATCC
# IMR-32 = test: Antiproliferative activity against human IMR32 cells assessed as reduction in cell viability after 72 hrs by MTT assay; type: functional, cell-based; details: IMR-32, 72 h
# A549 [2] = test: Antiproliferative activity against human A549 cells assessed as reduction in cell viability after 48 hrs by SRB assay; type: functional, cell-based; details: A549, 48 h
# HCT-116 [3] = test: Antiproliferative activity against human HCT116 cells assessed as reduction in cell viability after 48 hrs by SRB assay; type: functional, cell-based; details: HCT-116, 48 h
# MCF7 [4] = test: Antiproliferative activity against human MCF7 cells assessed as reduction in cell viability after 48 hrs by SRB assay; type: functional, cell-based; details: MCF7, 48 h
# HT-29 [5] = test: Antiproliferative activity against human HT-29 cells assessed as reduction in cell viability after 48 hrs by SRB assay; type: functional, cell-based; details: HT-29, 48 h
# MCF7 [6] = test: Antiproliferative activity against human MCF7 cells assessed as reduction in cell viability after 72 hrs by MTT assay; type: functional, cell-based; details: MCF7, 72 h
# HT-29 [7] = test: Antiproliferative activity against human HT-29 cells assessed as reduction in cell viability after 72 hrs by MTT assay; type: functional, cell-based; details: HT-29, 72 h
# MOLT-4 = test: Antiproliferative activity against human MOLT4 cells assessed as reduction in cell viability after 72 hrs by MTT assay; type: functional, cell-based; details: MOLT-4, 72 h
# HCT-116 [8] = test: Antiproliferative activity against human HCT116 cells assessed as reduction in cell viability after 48 hrs by MTT assay; type: functional, cell-based; details: HCT-116, 48 h
# A549 [9] = test: Antiproliferative activity against human A549 cells assessed as reduction in cell viability after 48 hrs by MTT assay; type: functional, cell-based; details: A549, 48 h
# HT-29 [10] = test: Antiproliferative activity against human HT-29 cells assessed as reduction in cell viability after 48 hrs by MTT assay; type: functional, cell-based; details: HT-29, 48 h
# HBL-100 = test: Antiproliferative activity against human HBL100 cells assessed as reduction in cell viability after 48 hrs by MTT assay; type: functional, cell-based; details: HBL-100, 48 h
# MCF7 [11] = test: Potency index, ratio of Sorafenib IC50 to test compound IC50 for antiproliferative activity against human MCF7 cells; type: functional
# HT-29 [12] = test: Potency index, ratio of Sorafenib IC50 to test compound IC50 for antiproliferative activity against human HT-29 cells; type: functional
# PC-3 = test: cells; type: functional, cell-based; details: Homo sapiens, PC-3, 48 h
# Description: Antiproliferative activity against human PC3 cells assessed as reduction in cell viability after 48 hrs by MTT assay
# HGC-27 = test: Antiproliferative activity against human HGC27 cells assessed as reduction in cell viability after 48 hrs by MTT assay; type: functional, cell-based; details: HGC-27, 48 h
# MGC-803 = test: Antiproliferative activity against human MGC803 cells by MTT assay; type: functional, cell-based
# MKN-28 = test: Antiproliferative activity against human MKN28 cells by MTT assay; type: functional, cell-based
# MKN-45 = test: Antiproliferative activity against human MKN45 cells by MTT assay; type: functional, cell-based
# MDA-MB-231 [13] = test: Antiproliferative activity against human MDA-MB-231 cells assessed as reduction in cell viability after 24 hrs by MTT assay; type: functional, cell-based; details: MDA-MB-231, 24 h
# MCF7 [14] = test: Antiproliferative activity against human MCF7 cells assessed as reduction in cell viability after 24 hrs by MTT assay; type: functional, cell-based; details: MCF7, 24 h
# MDA-MB-231 [15] = test: Antiproliferative activity against human MDA-MB-231 cells by MTT assay; type: functional, cell-based
# HEK293 = test: Cytotoxicity against HEK293 cells by MTT assay; type: cell-based; details: Homo sapiens
# MCF7 [16] = test: cells; type: functional, cell-based; details: Homo sapiens
# Description: Antiproliferative activity against human MCF7 cells by MTT assay
# ECa-109 cell line = test: Antiproliferative activity against human EC109 cells by MTT assay; type: functional, cell-based
# [17] = Antiproliferative activity against human HCG27 cells by MTT assay; type: functional, cell-based
smiles,measurement,setting,value
Cc1n[nH]c(=O)c2c1c1cc(F)ccc1n2Cc1cn(C2CCCCC2)nn1,IC50,MDA-MB-231 [1],0.042 to 0.478 µM
same,IC50,U-87 MG,0.042 to 0.478 µM
same,IC50,IMR-32,0.042 to 0.478 µM
Cc1ccc(-c2nn(-c3ccccc3)cc2/C=C/C(=O)OCc2cn(-c3ccc([N+](=O)[O-])cc3)nn2)cc1,IC50,A549 [2],1.76 to 9.46 µM
same,IC50,HCT-116 [3],1.76 to 9.46 µM
same,IC50,MCF7 [4],1.76 to 9.46 µM
same,IC50,HT-29 [5],1.76 to 9.46 µM
O=C1C=C(NCc2cn(Cc3ccc(C(F)(F)F)cc3)nn2)C(=O)c2ccccc21,IC50,MCF7 [6],6.8 to 10.4 µM
same,IC50,HT-29 [7],6.8 to 10.4 µM
same,IC50,MOLT-4,6.8 to 10.4 µM
COc1cc(-n2cc(CO[C@H]3CC[C@@]4(C)C(=CC[C@H]5[C@@H]6C[C@@H]7O[C@]8(CC[C@@H](C)CO8)[C@@H](C)[C@@H]7[C@@]6(C)CC[C@@H]54)C3)nn2)cc(OC)c1OC,IC50,HCT-116 [8],5.16 to 9.44 µM
same,IC50,A549 [9],5.16 to 9.44 µM
same,IC50,HT-29 [10],5.16 to 9.44 µM
same,IC50,HBL-100,5.16 to 9.44 µM
CNC(=O)c1cc(Oc2ccc(-n3cc(-c4cccs4)nn3)cc2)ccn1,IC50,MCF7 [6],0.2 to 0.84 µM
same,Ratio IC50,MCF7 [11],6.2 - 131.2
same,Ratio IC50,HT-29 [12],6.2 - 131.2
same,IC50,HT-29 [7],0.2 to 0.84 µM
CNC(=O)c1cc(Oc2ccc(-n3cc(-c4cccc(F)c4)nn3)cc2)ccn1,IC50,MCF7 [6],0.2 to 0.84 µM
same,Ratio IC50,MCF7 [11],6.2 - 131.2
same,Ratio IC50,HT-29 [12],6.2 - 131.2
same,IC50,HT-29 [7],0.2 to 0.84 µM
COc1cc(-c2nc(Cn3cc(CN4C(=O)c5ccc(C)cc5C4=O)nn3)cc3c2[nH]c2ccccc23)cc(OC)c1OC,IC50,MCF7 [6],3.67 to 26.5 µM
same,IC50,HT-29 [10],3.67 to 26.5 µM
same,IC50,PC-3,3.67 to 26.5 µM
same,IC50,HGC-27,3.67 to 26.5 µM
Cc1n[nH]c(=O)c2c1c1cc(F)ccc1n2Cc1cn(Cc2ccc(F)cc2)nn1,IC50,MDA-MB-231 [1],0.042 to 0.478 µM
same,IC50,U-87 MG,0.042 to 0.478 µM
same,IC50,IMR-32,0.042 to 0.478 µM
COc1ccc(-n2cc(CN3c4ccccc4Sc4ccccc43)nn2)c([N+](=O)[O-])c1,IC50,MGC-803,1.2 to 3.5 µM
same,IC50,MKN-28,1.2 to 3.5 µM
same,IC50,MKN-45,1.2 to 3.5 µM
COc1ccc(-c2nc(Cn3cc(CN4C(=O)c5cccc6cccc(c56)C4=O)nn3)cc3c2[nH]c2ccccc23)cc1OC,IC50,MCF7 [6],3.67 to 26.5 µM
same,IC50,HT-29 [10],3.67 to 26.5 µM
same,IC50,PC-3,3.67 to 26.5 µM
same,IC50,HGC-27,3.67 to 26.5 µM
Cc1ncc([N+](=O)[O-])n1Cc1cn(CCCCCN2C(=O)C(=O)c3cc(Cl)ccc32)nn1,IC50,MDA-MB-231 [13],16.1 µM
same,IC50,MCF7 [14],20.8 µM
Cc1ccc(-n2nc(N)c(C(=O)NCCNC(=O)c3nn(-c4ccc(C)cc4)nc3N)n2)cc1,IC50,MDA-MB-231 [15],7 µM
same,IC50,HEK293,> 50 µM
Cc1ccc(Cn2cc(CSc3nc(Nc4ccccc4)c4ccccc4n3)nn2)cc1,IC50,MCF7 [16],0.57 to 7.13 µM
same,IC50,MGC-803,0.57 to 7.13 µM
same,IC50,ECa-109 cell line,0.57 to 7.13 µM
same,IC50,[17],0.57 to 7.13 µM
